Measured values reported in EP2835136A1, “Somatostatin Receptor Modulator for the treatment of infertility” (PregLem S.A., priority 2013, dated 2015).
Bridge positions count the residues as written; N and C are the ends. Square brackets hold non-standard residues; d marks the D form. Peptide text beside a SMILES is read from it. Phe(4-Cl) = N[C@@H](Cc1ccc(Cl)cc1)C(=O)O; 2Nal = N[C@@H](Cc1ccc2ccccc2c1)C(=O)O; 4Pal = N[C@@H](Cc1ccncc1)C(=O)O; NMeK = CN[C@@H](CCCCN)C(=O)O

Assays:
[1] = target: hsst1 (Homo sapiens, UniProt P30872); assay: in vitro binding assay, hsst1
[2] = target: hsst2 (Homo sapiens, UniProt P30874); assay: in vitro binding assay, hsst2
[3] = target: hsst3 (Homo sapiens, UniProt P32745); assay: in vitro binding assay, hsst3
[4] = target: hsst4 (Homo sapiens, UniProt P31391); assay: in vitro binding assay, hsst4
[5] = target: hsst5 (Homo sapiens, UniProt P35346); assay: in vitro binding assay, hsst5
Chain of hsst5 (P35346 whole entry): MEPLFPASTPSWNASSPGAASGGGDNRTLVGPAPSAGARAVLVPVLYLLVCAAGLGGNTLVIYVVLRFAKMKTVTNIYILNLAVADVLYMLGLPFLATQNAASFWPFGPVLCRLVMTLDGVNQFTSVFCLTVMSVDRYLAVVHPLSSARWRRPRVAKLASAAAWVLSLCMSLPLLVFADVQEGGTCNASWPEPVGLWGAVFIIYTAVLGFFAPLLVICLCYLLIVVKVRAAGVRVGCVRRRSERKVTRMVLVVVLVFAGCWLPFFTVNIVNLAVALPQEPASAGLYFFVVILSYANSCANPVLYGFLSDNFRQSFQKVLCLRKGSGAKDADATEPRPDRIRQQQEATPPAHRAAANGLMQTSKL

Chain of hsst1 (P30872 whole entry): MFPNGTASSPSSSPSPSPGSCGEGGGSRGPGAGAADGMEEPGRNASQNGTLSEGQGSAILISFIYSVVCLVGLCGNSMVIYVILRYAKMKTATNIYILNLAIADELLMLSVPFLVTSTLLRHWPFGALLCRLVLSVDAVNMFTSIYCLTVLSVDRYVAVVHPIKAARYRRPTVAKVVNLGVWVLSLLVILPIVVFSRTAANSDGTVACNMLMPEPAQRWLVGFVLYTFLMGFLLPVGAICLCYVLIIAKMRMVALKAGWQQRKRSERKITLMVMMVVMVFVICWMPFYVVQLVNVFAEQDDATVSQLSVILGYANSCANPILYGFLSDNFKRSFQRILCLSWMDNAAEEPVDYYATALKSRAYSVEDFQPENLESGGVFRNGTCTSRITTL
Chain of hsst4 (P31391 whole entry): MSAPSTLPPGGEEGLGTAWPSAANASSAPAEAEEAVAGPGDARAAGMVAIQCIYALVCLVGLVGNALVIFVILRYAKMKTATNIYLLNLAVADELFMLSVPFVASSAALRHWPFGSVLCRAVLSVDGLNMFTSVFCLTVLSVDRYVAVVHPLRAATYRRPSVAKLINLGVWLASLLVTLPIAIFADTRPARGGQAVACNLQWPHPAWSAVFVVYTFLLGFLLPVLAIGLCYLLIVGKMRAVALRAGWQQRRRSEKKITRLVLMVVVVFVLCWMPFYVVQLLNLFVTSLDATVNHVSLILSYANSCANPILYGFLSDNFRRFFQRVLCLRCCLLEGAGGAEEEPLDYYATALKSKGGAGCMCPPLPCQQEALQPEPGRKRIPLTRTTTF
Chain of hsst2 (P30874 whole entry): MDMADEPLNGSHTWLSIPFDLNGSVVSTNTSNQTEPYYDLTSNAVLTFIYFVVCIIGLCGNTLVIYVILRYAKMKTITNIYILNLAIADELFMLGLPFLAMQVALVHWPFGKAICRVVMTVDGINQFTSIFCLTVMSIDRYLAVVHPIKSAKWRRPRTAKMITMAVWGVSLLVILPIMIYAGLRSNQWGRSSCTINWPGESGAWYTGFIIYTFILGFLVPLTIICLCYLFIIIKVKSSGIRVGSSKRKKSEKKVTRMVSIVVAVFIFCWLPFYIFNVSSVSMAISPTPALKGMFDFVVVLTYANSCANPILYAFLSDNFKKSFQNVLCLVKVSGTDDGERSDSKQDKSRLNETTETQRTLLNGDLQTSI
Chain of hsst3 (P32745 whole entry): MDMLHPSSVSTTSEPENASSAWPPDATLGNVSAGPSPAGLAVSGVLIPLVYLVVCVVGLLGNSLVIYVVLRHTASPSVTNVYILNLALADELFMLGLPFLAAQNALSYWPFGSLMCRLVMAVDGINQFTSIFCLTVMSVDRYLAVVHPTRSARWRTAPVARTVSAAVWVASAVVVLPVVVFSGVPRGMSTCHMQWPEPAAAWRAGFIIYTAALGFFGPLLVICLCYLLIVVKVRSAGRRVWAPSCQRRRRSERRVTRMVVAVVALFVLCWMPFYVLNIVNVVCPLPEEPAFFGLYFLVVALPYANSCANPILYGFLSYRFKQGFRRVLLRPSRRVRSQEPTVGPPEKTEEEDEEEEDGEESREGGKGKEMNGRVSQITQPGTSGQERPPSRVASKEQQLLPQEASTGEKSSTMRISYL

| Ki [1] [µM] | Ki [2] [µM] | Ki [3] [µM] | Ki [4] [µM] | Ki [5] [µM] | Compound |
| --- | --- | --- | --- | --- | --- |
| 1 | 0.0171 | 0.066 | 1 | 0.006 | C[C@@H](O)[C@@H]1NC(=O)[C@H](CCCCN)N(C)C(=O)[C@@H](Cc2c[nH]c3ccccc23)NC(=O)[C@H](Cc2ccncc2)NC(=O)[C@H](NC(=O)[C@@H](N)Cc2ccc(Cl)cc2)CSSC[C@@H](C(=O)N[C@@H](Cc2ccc3ccccc3c2)C(N)=O)NC1=O [Compound "B", Cpa-[D-Cys-4-Pal-D-Trp-N-Me-Lys-Thr-Cys]-2-Nal-NH2] (H-[Phe(4-Cl)][dC][4Pal][dW][NMeK]TC[2Nal]-NH2; disulfide 2-7) |
| 2.76 | 0.0064 | 0.044 | 0.711 | 0.086 | C[C@@H](O)[C@@H]1NC(=O)[C@H](CCCCN)NC(=O)[C@@H](Cc2c[nH]c3ccccc23)NC(=O)[C@H](Cc2ccncc2)NC(=O)[C@H](NC(=O)[C@@H](N)Cc2ccc(Cl)cc2)CSSC[C@@H](C(=O)N[C@@H](Cc2ccc3ccccc3c2)C(N)=O)NC1=O [Compound "A", Cpa-[D-Cys-4-Pal-D-Trp-Lys-Thr-Cys]-2-Nal-NH2] |
